Assay [1] deals with ETBF. Kind of assay: ETBF-mediated disease model in mono-colonized germ-free mice. The note with it: for lipocalin2 levels: 15-50 mg/kg p.o., QD. It is filed as in vivo. The protocol:
Test compounds were also screened in vivo. Germ-free (GF) mice were mono-colonized with ETBF on day 0. […] Markers of injury and inflammation (e.g., cecal weight and fecal lipocalin 2) were analyzed on day 4 (FIG. 6A). Sample size was 5-6 mice per group.

Assay [2] has as its system BFT. Kind of assay: E-cadherin release assay (BFT-induced E-cadherin release from HT29 cells). The class given is cell-based, B. fragilis. To be noted: 18 hours, E-cadherin in supernatant by ELISA, read-out: HT29 Cell IC50. As for the experimental part: Test compounds were also screened for their ability to inhibit BFT-induced E-cadherin release from HT29 cells.
Different concentrations of test compounds were pre-incubated with rBFT for one hour at 37° C. The rBFT-compound mixture was then added to HT29 cells and incubated at 37° C. for 18 hours. Following incubation, cell supernatants were harvested and E-cadherin was quantified in the supernatants by ELISA (FIG. 2).

The target in assay [3] is collagenase H (ColH) (Hathewaya histolytica, UniProt Q46085). Kind of assay: biochemical. Also on record: species or system Clostridium histolyticum.
collagenase H (ColH), sequence (Q46085 41-1021 limits assumed): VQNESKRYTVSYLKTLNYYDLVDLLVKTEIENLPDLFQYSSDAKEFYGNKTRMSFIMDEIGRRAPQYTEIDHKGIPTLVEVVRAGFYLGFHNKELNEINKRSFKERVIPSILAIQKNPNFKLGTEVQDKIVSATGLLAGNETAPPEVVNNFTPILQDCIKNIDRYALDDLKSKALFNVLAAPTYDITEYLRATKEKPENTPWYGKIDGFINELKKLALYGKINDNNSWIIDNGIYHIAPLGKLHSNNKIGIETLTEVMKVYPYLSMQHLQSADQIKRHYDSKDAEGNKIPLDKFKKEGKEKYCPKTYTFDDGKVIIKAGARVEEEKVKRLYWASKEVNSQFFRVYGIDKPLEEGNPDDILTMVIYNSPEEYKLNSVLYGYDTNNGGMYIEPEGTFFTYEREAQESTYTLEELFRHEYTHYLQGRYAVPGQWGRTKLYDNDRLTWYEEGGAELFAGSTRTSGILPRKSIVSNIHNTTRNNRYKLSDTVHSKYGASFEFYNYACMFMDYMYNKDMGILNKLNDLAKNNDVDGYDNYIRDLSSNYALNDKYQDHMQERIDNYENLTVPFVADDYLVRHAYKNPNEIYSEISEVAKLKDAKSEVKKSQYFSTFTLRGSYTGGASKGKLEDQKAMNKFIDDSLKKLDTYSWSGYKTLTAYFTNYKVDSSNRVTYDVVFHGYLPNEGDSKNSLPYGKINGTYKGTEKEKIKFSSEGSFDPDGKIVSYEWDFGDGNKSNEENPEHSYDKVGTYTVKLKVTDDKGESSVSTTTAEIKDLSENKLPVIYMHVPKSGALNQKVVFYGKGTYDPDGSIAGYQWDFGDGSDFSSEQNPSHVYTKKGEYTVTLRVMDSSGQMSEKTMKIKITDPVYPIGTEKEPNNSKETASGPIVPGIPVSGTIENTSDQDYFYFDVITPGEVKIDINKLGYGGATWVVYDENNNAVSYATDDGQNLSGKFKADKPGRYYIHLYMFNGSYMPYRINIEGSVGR
The subject of assay [4] is recombinant BFT (rBFT). Kind of assay: NFF-3 cleavage assay. To be noted: rBFT pre-incubated with compound 30 minutes at 37° C., then NFF-3 for 24 hours; read-out: NFF3 IC50. The class given is biochemical, B. fragilis. The protocol: A NFF-3 cleavage assay was used to test activity of recombinant BFT, before or after addition of various inhibitors. The NFF-3 cleavage assay was previously described by Goulas et al., PNAS, 2011, 108(5) 1856-1861, which is incorporated by reference herein in its entirety.
Initially, recombinant BFT (rBFT) (0.25, 0.5, 1, 2, 4, 8, or 16 μg/mL) was incubated at 37° C. with the fluorogenic substrate NFF-3 (Cayman Chemical) at a concentration of 2.5 μM, 5 μM, or 10 μM. After 18 hours, fluorescence was measured in a microplate fluorimeter.
Next, rBFT was pre-incubated with one or more test compounds at different concentrations for 30 minutes at 37° C. The rBFT-compound mixture was then added to NFF-3 and incubated for 24 hours at 37° C. Fluorescence was then measured in a microplate fluorimeter.

Assay [5] addresses Gelatinase E (GelE) (Enterococcus faecalis (strain ATCC 700802 / V583), UniProt Q833V7). Put plainly: Gelatinase E activity assay (FRET peptide substrate). It is filed as biochemical. To be noted: Table 11. The protocol: Gelatinase E (Gel E) was purified from bacterial culture supernatant from E. faecalis. E. faecalis was cultured aerobically in Todd Hewitt Broth overnight at 37° C. Nucleic acid was precipitated with 0.9% protamine solution, followed by protein precipitation with ammonium sulfate. Resuspended protein pellet was further subjected to purification using FPLC (phenyl Sepharose column). Fractions with gelatinase activity as determined by casein agar assay were pooled and further concentrated.
Different concentrations of test compound were incubated with purified GelE and FRET-based peptide substrate (390 MMP FRET Substrate 1; Anaspec AS-27077) in assay buffer at room temperature for 30 minutes. The fluorescence signal was determined by a plate reader.

The mark [6] stands for this setting: ETBF-colonized mice, 50 mg/kg oral BID days 1-3, analyzed day 4.

The record followed here is patent US20230357139A1, “SMALL MOLECULE INHIBITORS OF BACTERIAL TOXINS” (Artizan Biosciences, Inc., priority 2020, published 2023).

pIC50: −log10 of the molar value. Read-outs that look alike come from different tables or passages of the source.

Gelatinase E (GelE), sequence (Q833V7 193-510 limits assumed): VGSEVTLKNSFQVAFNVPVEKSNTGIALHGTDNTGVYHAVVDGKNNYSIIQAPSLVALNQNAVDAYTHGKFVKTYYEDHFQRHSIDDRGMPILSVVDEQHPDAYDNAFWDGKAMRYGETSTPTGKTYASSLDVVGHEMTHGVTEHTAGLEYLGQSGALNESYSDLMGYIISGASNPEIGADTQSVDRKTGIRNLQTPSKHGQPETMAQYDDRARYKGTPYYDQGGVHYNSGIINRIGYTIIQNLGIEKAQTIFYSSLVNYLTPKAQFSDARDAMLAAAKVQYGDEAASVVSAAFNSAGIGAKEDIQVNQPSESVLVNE

Regarding `CC(C)[C@H](C(=O)NO)N(Cc1cccnc1)S(=O)(=O)c1ccc(O)cc1` [OH-CGS-23270A, 2(R)-[4-Hydroxy-N-(3-pyridylmethyl)phenylsulfonamido]-3-methylbutyrohydroxamic acid, reference compound], in assay [1] (setting [6]), the “cecal weight compared to vehicle control” value is given as “significantly increased” and the “fecal lipocalin2 compared to vehicle control” value was “significantly decreased”.
What is called pIC50 is the IC50 on a negative log10 scale, so that one unit is a factor of ten. On to `CC(C)C[C@H](C(=O)NO)N(Cc1ccc(F)cc1)S(=O)(=O)c1ccc(O)cc1` [Example 26], for which the pIC50 in assay [2] is 5.89; in assay [3], 4.71.
On to `CCC[C@H](C(=O)NO)N(Cc1cccnc1)S(=O)(=O)c1ccc(O)cc1` [Example 42], for which the pIC50 in assay [4] was 7.05; in assay [3], 5.06. Also, the lipocalin2 levels result in assay [1] is “significantly reduce”.
For `CC[C@H](C(=O)NO)N(CCc1cccnc1)S(=O)(=O)c1ccc(O)cc1` [Example 60, (R)—N-hydroxy-2-((4-hydroxy-N-(2-(pyridin-3-yl)ethyl)phenyl)sulfonamido)butanamide] the same measures were 7.73, 5.42 and “significantly reduce”.
As for `CC(C)C[C@H](C(=O)NO)N(Cc1ccc2[nH]ccc2c1)S(=O)(=O)c1ccc(O)cc1` [Example 33], the pIC50 was 6.85 in assay [4], 5.76 in assay [2] and 6.42 in assay [3].
As to `CCOc1ccc(S(=O)(=O)N(CC(=O)NO)CC(C)C)cc1` [C], the pIC50 in assay [5] is 6.43; in assay [3] (read-out: ColH IC50), less than 4.00.
